From patent publication US10206936B2, “Oxidized lipids and treatment or prevention of fibrosis” (Vascular Biogenics Ltd., priority 2014, dated 2019)
“And” between values parts separate entries of the source, which are not always exact repeats. Equal entries are not always repeated.

Legend:
NASH mouse model = NASH mouse model (STZ + HFD): liver inflammation and fibrosis histology; format: in vivo; conditions: NASH mice; for reduction of liver inflammation (inflammation score) vs vehicle: VB-201 4 mg/kg or telmisartan 10 mg/kg once daily for three weeks
Procedure: Neonatal male mice exposed to low-dose streptozotocin (STZ) develop liver steatosis with diabetes. Continuous high fat diet (HFD) increases lobular inflammation with foam cell-like macrophages, showing nonalcoholic steatohepatitis (NASH) pathology. NASH was induced in 40 male mice by a single subcutaneous injection of 200 μg per mouse of STZ two days after birth and feeding HFD [57 kcal % fat]) from four weeks of age. Vehicle, VB-201 (4 mg/kg), or telmisartan (10 mg/kg) as positive control, were administered once daily for three weeks, starting from six weeks of age. Mice were sacrificed at nine weeks of age.
Liver pathology was used to determine the effect of VB-201 on liver inflammation and fibrosis. Histology slides were stained with hematoxylin/eosin (H&E) to assess inflammation. The inflammation score was determined as follows:
Histology slides were stained with Sirius red to determine collagen content as a marker for the extent of fibrosis.

nephrectomized rats [1] = experiment: 5/6 nephrectomy rat model: glomerular damage and sclerosis (PAS); format: in vivo, Sprague Dawley (SD) Rats; conditions: for Glomerular sclerosis, Global % (Mean ± S.E) / Glomerular sclerosis, Global & Segmental % (Mean ± S.E) / Glomerular sclerosis, Segmental % (Mean ± S.E): Nx rats, VB-201 4 mg/kg or telmisartan 10 mg/kg, 8 weeks; for reduction of damaged glomeruli vs Nx PBS 0.5% Eth / reduction of sclerotic glomeruli vs Nx PBS 0.5% Eth: VB-201 4 mg/kg or telmisartan 10 mg/kg oral, 7 weeks, evaluated at 8 weeks
Procedure: Male Sprague Dawley (SD) Rats (Harlan Laboratories, Israel) with an initial weight of 200 g were housed 2-3 per cage in IVC cages in dedicated HVAC (heat, ventilation, air conditioning) animal facility. The facility had no exposure to outside light and was maintained on automatic alternating cycles of 12 hours of light and 12 hours of dark. Animals were provided with a commercial rodent diet (Harlan Teklad TRM Rat/Mouse Diet) ad libitum and allowed free access to autoclaved water, supplied to each cage via polysulphone bottles with stainless steel sipper tubes. All animal work was approved by the Animal Care and Use Committee of Israel (IL-13-03-027).
(§1) Rats were divided into three groups: (1) Healthy rats (n=3) in group A, (2) Sham group—subjected to chirurgical process but without kidney mass reduction (n=3) in group B, and (3) the rest were induced with chronic renal failure (n=24). Chronic renal failure was induced by a two stage (5/6) nephrectomy (Nx), with subtraction firstly of about ⅔ of the left kidney by left flank incision and, one week later, complete removal of the right kidney. General anesthesia consisted of intraperitoneal injection of ketamine 100 mg/kg and xylazine 20 mg/kg (0.85 ml ketamine+0.15 ml xylazine for each ml preparation; 1 μl/g BW was injected I.P).
One week following the second surgery, rats were randomly assigned to the following experimental groups:
Nephrectomized, orally administered with VB-201 4 mg/kg (n=8); and
Nephrectomized, orally administered with telmisartan 10 mg/kg as positive control (n=8).
(§2) Body weight (BW) was monitored throughout the study and rats were treated by oral gavage according to their body weight for 7 weeks. Rats were sacrificed by CO2 inhalation 8 weeks from removal of the right kidney (2nd surgery).
Upon sacrifice, at 8 weeks, kidneys were collected, weighed and fixed in 4% formaldehyde.
For light microscopy, paraffin-embedded tissue slides of 4 μm were stained with Periodic Acid-Schiff (PAS) reagent.
Glomerulosclerosis was assessed by PAS-stained sections using a semiquantitative scoring system. The extent of glomerulosclerosis was evaluated by examining mostly 100 randomly selected glomeruli at a magnification of ×400 and applying a score system according to the percentage of sclerosed glomerular area. The score was graded from 0 to 4: (0=0% area; 1=1-25%; 2=26-50%, 3=51-75%, 4=76% and above). The mean of all scored glomeruli was presented. Moreover, the extent of global and segmental glomerulosclerosis was evaluated in the same glomeruli, where <80% sclerosis was referred to as segmental and >80% was referred to as global.
The glomerular area of mostly 100 randomly selected glomeruli at a magnification of ×100 was quantitated by counting squares covered by glomeruli area using a grid and the mean glomeruli area was calculated.
Glomeruli were evaluated for their fibrosis extent by scoring and by calculation of the percent of glomeruli having segmental sclerosis, global sclerosis and the sum of global and segmental sclerotic glomeruli. Moreover, the area of the glomeruli was calculated and the percent of hypertrophied glomeruli was calculated. Damaged glomeruli included hypertrophied (at least ×1.5 from normal area) and or sclerotic glomeruli.

nephrectomized rats [2] = experiment: 5/6 nephrectomy rat model: ED-1/CD68+ monocyte/macrophage infiltration, immunohistochemistry; format: in vivo, Sprague Dawley (SD) Rats; conditions: VB-201 4 mg/kg or telmisartan 10 mg/kg, 8 weeks after surgery; for ED-1/CD68+ Glomerular monocytes/macrophages (Mean ± S.E) / ED-1/CD68+ Interstitial monocytes/macrophages (Mean ± S.E): Nx rats
Excerpt: as §1, §2
Renal tissues were fixed in 4% formaldehyde and embedded in paraffin. The paraffin-embedded tissues were then cut to form tissue slides of 4 μm. Immunohistochemistry of the paraffin-embedded tissue slides was analyzed using antibodies in the following concentration: monoclonal mouse anti rat CD-68 (ED-1, Serotec MCA341) 1:25. For quantitation of interstitial CD68+ staining, the number of positive cells was counted in 20 randomly selected non-overlapping fields per animal, and the mean value was presented.

Collagen IV = experiment: 5/6 nephrectomy rat model: kidney Collagen IV mRNA, real-time PCR; format: in vivo, Sprague Dawley (SD) Rats; conditions: kidney of Nx rats, 8 weeks; for reduction of Collagen IV mRNA expression vs Nx PBS 0.5% Eth: VB-201 4 mg/kg or telmisartan 10 mg/kg; for Collagen IV relative mRNA expression (mean ± SEM): normalized to TBP, relative to Sham PBS 0.5% Eth
Excerpt: as §1, §2
(§3) Kidney RNA was extracted with an RNeasy Fibrous Tissue Mini kit (Qiagen) and after DNAse I treatment, single-stranded cDNA was synthesized from 2 μg total RNA using the qScript cDNA Synthesis Kit (Quanta Biosciences) and diluted for real-time PCR. The expression of collagen 4a, fibronectin and TGFβ was quantified using the 7300 Real Time PCR System (Applied Biosystems). The assay was performed according to manufacturer instructions using the primers (Assay ID) represented at the table below supplied by Applied Biosystems. Data were normalized to the reference gene TATA-box Binding Protein (TBP) and presented as relative mRNA levels compared with Sham PBS 0.5% Eth treatment (Table 1).

TGF-β = experiment: 5/6 nephrectomy rat model: kidney TGF-β mRNA, real-time PCR; format: in vivo, Sprague Dawley (SD) Rats; conditions: kidney of Nx rats, 8 weeks; for reduction of TGF-β mRNA expression vs Nx PBS 0.5% Eth: VB-201 4 mg/kg or telmisartan 10 mg/kg; for TGF-β relative mRNA expression (mean ± SEM): normalized to TBP, relative to Sham PBS 0.5% Eth
Excerpt: as §1, §2, §3

Structure (SMILES) | decrease of extent of liver fibrosis (Sirius red fibrosis area) vs vehicle (NASH mouse model; VB-201 4 mg/kg once daily for three weeks) | reduction of liver inflammation (inflammation score) vs vehicle (NASH mouse model) [%] | Glomerular sclerosis, Global % (Mean ± S.E) (nephrectomized rats [1]) [%] | Glomerular sclerosis, Global & Segmental % (Mean ± S.E) (nephrectomized rats [1]) [%] | Glomerular sclerosis, Segmental % (Mean ± S.E) (nephrectomized rats [1]) [%] | reduction of damaged glomeruli vs Nx PBS 0.5% Eth (nephrectomized rats [1]) [%] | reduction of sclerotic glomeruli vs Nx PBS 0.5% Eth (nephrectomized rats [1]) [%] | ED-1/CD68+ Glomerular monocytes/macrophages (Mean ± S.E) (nephrectomized rats [2]) | ED-1/CD68+ Interstitial monocytes/macrophages (Mean ± S.E) (nephrectomized rats [2]) | reduction of number of glomerular monocytes/macrophages vs Nx PBS 0.5% Eth (nephrectomized rats [2]) [%] | reduction of number of interstitial monocytes/macrophages vs Nx PBS 0.5% Eth (nephrectomized rats [2]) [%] | reduction of Collagen IV mRNA expression vs Nx PBS 0.5% Eth (Collagen IV) [%] | Collagen IV relative mRNA expression (mean ± SEM) (Collagen IV) | reduction of TGF-β mRNA expression vs Nx PBS 0.5% Eth (TGF-β) [%] | TGF-β relative mRNA expression (mean ± SEM) (TGF-β)
CCCCCCCCCCCCCCCCOCC(COP(=O)([O-])OCC[N+](C)(C)C)OCCCCC(=O)O (centres unmarked) [VB-201, 1-hexadecyl-2-(4′-carboxybutyl)-glycero-3-phosphocholine] | about 34% | 65 | 5.4 ± 3.22 | 31.8 ± 4.92 | 26.5 ± 4.39 | 29 | 34 | 2.113±0.374 Cells/Glomeruli and 2.113 Cells/Glomeruli | 269.25±25.41 Cells/mm^2 and 269.3 Cells/mm^2 | 42 | 49 | 42 | 4.3±0.33 | 37 | 5.3±0.33
CCCc1nc2c(C)cc(-c3nc4ccccc4n3C)cc2n1Cc1ccc(-c2ccccc2C(=O)O)cc1 [telmisartan, reference compound] | – | 77 | 1.9 ± 1.60 | 21.0 ± 5.45 | 19.1 ± 4.30 | 31 | 57 | 3.185±0.427 Cells/Glomeruli and 3.185 Cells/Glomeruli | 421.0±61.77 Cells/mm^2 and 421.0 Cells/mm^2 | 13 | 20 | 41 | 4.4±0.23 | 44 | 4.7±0.52
